Test results reported in patent US20230069722A1, “TUBULYSINS AND PROTEIN-TUBULYSIN CONJUGATES” (priority 2020, published 2023).
Where two headings read alike, the source gives them in different places. Where a SMILES comes first, the peptide text is derived from it. [ ]: non-standard residue; d: D form. The star is where a group is joined. Dolaproine = CO[C@@H]([C@@H]1CCCN1)[C@@H](C)C(=O)O; Dil = CC[C@H](C)[C@H](NC)[C@@H](CC(=O)O)OC; X1 = C[C@@H](N*)[C@@H](O)c1ccccc1; NMeV = CN[C@H](C(=O)O)C(C)C

Tests used:
HCT15 cells = assay: MDR cell based killing assay, HCT15 cells with or without Verapamil (CellTiter-Glo); parameters: species or system human; conditions: for IC50: Homo sapiens; for HCT-15 with verapamil Ratio to Xa = H / HCT-15 Ratio to Xa = H: IC50 ratio to parent payload with Xa = H; for HCT-15 Ratio to Xa = H: without verapamil
Procedure, shortened: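 CellTiter-Glo luminescence after 5-day exposure gave viability of 1000 HCT15 cells per well, grown in RPMI/10% FBS ± 5 ug/mL Verapamil. Payload tested from 100 nM down to 15 pM in threefold steps; four-parameter logistic IC50 in molar; MDR shift expressed as −Verapamil/+Verapamil IC50 ratio.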

[1] = system: SK-BR-3 human breast adenocarcinoma cell line; assay: SK-BR-3 anti-proliferation / cell kill assay (CellTiter-Glo, 144 hrs); assay type: cell-based; conditions: for IC50: Homo sapiens, SK-BR-3, read-out: SK-BR-3 IC50; for SK-BR-3 Ratio to Xa = H: IC50 ratio to parent payload with Xa = H
Procedure: Anti-proliferation assays were performed using a SK-BR-3 human breast adenocarcinoma (pleural effusion) cell line. The cells were grown in McCoy's 5a Medium supplemented with 10% FBS, penicillin/streptomycin and L-glutamine. Cells were seeded 1000/well in 96-well plate in 80ul complete growth media one day prior to adding ADCs and incubated at 37° C. 5% CO2 overnight.
The ADCs were 1:3 serially diluted 10 points in assay media (Opti-MEM+0.1% BSA). The concentrations of the testing ADCs cover the range of 1 nM to ˜1000 nM and also starting from different concentrations based on the cell killing potency in order to see EC50 covers, leaving the last well (10th) as blank (no ADC or compound). ADCs were first 1:3 serially diluted 10 points in DMSO starting from […] (the starting concentration of each ADC is different according to the EC50s), leaving the last well as blank (containing only DMSO). 10 μl DMSO-diluted compound was transferred to 990 μl assay media (Opti-MEM+0.1% BSA) in a 96-well deep well dilution plate. 20 μl assay media-diluted ADC was added to cells. Cells were incubated at 37° C. […] for 6 days (144 hrs). Plates were developed by adding 100 μl CTG reagent/well to the cells CellTiter-Glo®, from Promega, Cat. No G7573), shaken at room temperature for 10 min, sealed with white adhesive bottom seal and luminescence was read with Envision. Cell kill %=[1−(T144sample−T144blank)/(T144DMSO−T144blank)]×100%, wherein T144 is the data at 144 hours.
The table below provides the drug-antibody ratios (DARs) for conjugates 1-37, along with the EC50 results from the SKBR assays for the same conjugates. The following linker-payloads (from Table P1) were prepared as described in PCT/US2019/068185, the content of which is hereby incorporated by reference in its entirety: LP4-Ve, LP4-Ve, LP25-Ve, LP25-Ve, LP26-Ve, LP26-Ve, LP17-Ve, LP13-Ve, LP19-Ve, LP2-Ve, LP21-Ve, LP6-Vb, LP24-Vb, LP23-Vb, and LP15-VIh.

C4-2 cells [2] = assay: Cell-based killing assay of payloads, C4-2 cells (CellTiter-Glo); parameters: species or system human
Procedure: (§1) To test the ability of the disclosed tubulysin payloads or prodrug payloads to kill human cell lines, an in vitro cytotoxicity assay can be performed. In vitro cytotoxicity of the disclosed payloads, as well as reference compounds, are evaluated using the CellTiter-Glo Assay Kit (Promega, Cat # G7573), in which the quantity of ATP present is used to determine the number of viable cells in culture. For the assay, C4-2, HEK293, or T47D cells are seeded at 4000 cells/well on Nunclon white 96-well plates in complete growth medium (DME high glucose:Ham's F12 at 4:1, 10% FBS, 100 units/ml Penicillin, 100 ug/ml streptomycin, 53 ug/ml glutatmine, 10 ug/ml insulin, 220 ng/ml biotin, 12.5 pg/ml T3, 12.5 ug/ml Adenine, 4 ug/ml transferrin for C42 cells; DME high glucose, 10% FBS, 100 units/ml Penicillin, 100 ug/ml streptomycin, 53 ug/ml glutatmine for HEK293; RPMI, 10% FBS, 100 units/ml Penicillin, 100 ug/ml streptomycin, 53 ug/ml glutatmine, 10 ug/ml insulin, 10 mM HEPEs, 200 nM Sodium Pyruvate for T47D cells) and grown overnight at 37° C. in 5% CO2. […] Relative luminescence units (RLU) can be determined on a Victor plate reader (PerkinElmer). The IC50 values are determined from a four-parameter logistic equation over a 10-point response curve (GraphPad Prism). […]

C4-2 cells [3] = assay: ADC cell based killing assay, C4-2 cells (anti-STEAP2 ADCs); parameters: species or system human
Procedure: as §1

[4] = HCT-15, read-out: HCT-15 with verapamil IC50
[5] = at the maximum concentration tested

Compound | IC50 (HCT15 cells; HCT-15, read-out: HCT-15 IC50) [nM] | IC50 (HCT15 cells; [4]) [nM] | HCT-15 with verapamil Ratio to Xa = H (HCT15 cells) [x] | HCT-15 Ratio to Xa = H (HCT15 cells) [x] | IC50 [1] [nM] | SK-BR-3 Ratio to Xa = H [1] [x] | IC50 (C4-2 cells [2]; 5-day incubation) [nM] | maximum % cell killing, C4-2 cells (C4-2 cells [2]; [5]) [%] | IC50 (C4-2 cells [3]; ADCs and reference payload) [nM] | maximum percent killing, C4-2 cells (C4-2 cells [3]; [5]) [%] | HCT-15 IC50/HCT-15+Verapamil IC50 ratio (HCT15 cells; IC50 without Verapamil divided by IC50 with Verapamil)
CCCCCCN(C(=O)[C@@H](NC(=O)[C@H]1CCCCN1C)[C@@H](C)CC)[C@H](C[C@@H](OC(C)=O)c1nc(C(=O)N[C@@H](Cc2ccc(NCCN)cc2)CC(C)(C)C(=O)O)cs1)C(C)C [Compound P30, (4S)-4-({2-[(1R,3R)-1-(acetyloxy)-3-[(2S,3S)—N-hexyl-3-methyl-2-{[(2R)-1-methylpiperidin-2-yl]formamido}pentanamido]-4-methylpentyl]-1,3-thiazol-4-yl}formamido)-5-{4-[(2-aminoethyl)amino]phenyl}-2,2-dimethylpentanoic Acid] | 2.64 | 0.42 | 22 | 155 | 0.45 | 34 | – | – | – | – | –
CCCCCCN(C(=O)[C@@H](NC(=O)[C@H]1CCCCN1)[C@@H](C)CC)[C@H](C[C@@H](OCC)c1nc(C(=O)N[C@@H](Cc2ccc(NC(=O)CN)cc2)CC(C)(C)C(=O)O)cs1)C(C)C [Compound P32, (4S)-5-[4-(2-aminoacetamido)phenyl]-4-({2-[(1R,3R)-1-ethoxy-3-[(2S,3S)—N-hexyl-3-methyl-2-[(2R)-piperidin-2-ylformamido]pentanamido]-4-methylpentyl]-1,3-thiazol-4-yl}formamido)-2,2-dimethylpentanoic Acid] | > 100 | > 100 | – | – | > 1 | – | – | – | – | – | –
CCCCCCN(C(=O)[C@@H](NC(=O)[C@H]1CCCCN1C)[C@@H](C)CC)[C@H](C[C@@H](OC(C)=O)c1nc(C(=O)N[C@@H](Cc2ccc(NC(=O)CN)cc2)CC(C)(C)C(=O)O)cs1)C(C)C [Compound P28, (4S)-4-({2-[(1R,3R)-1-(acetyloxy)-3-[(2S,3S)—N-hexyl-3-methyl-2-{[(2R)-1-methylpiperidin-2-yl]formamido}pentanamido]-4-methylpentyl]-1,3-thiazol-4-yl}formamido)-5-[4-(2-aminoacetamido)phenyl]-2,2-dimethylpentanoic Acid] | 0.17 | 0.11 | 5.8 | 6.9 | 0.03 | 2.5 | – | – | – | – | –
CCCCCCN(C(=O)[C@@H](NC(=O)[C@H]1CCCCN1C)[C@@H](C)CC)[C@H](C[C@@H](OCC)c1nc(C(=O)N[C@@H](Cc2ccc(NC(=O)CN)cc2)CC(C)(C)C(=O)O)cs1)C(C)C [Compound P31, (4S)-5-[4-(2-aminoacetamido)phenyl]-4-({2-[(1R,3R)-1-ethoxy-3-[(2S,3S)—N-hexyl-3-methyl-2-{[(2R)-1-methylpiperidin-2-yl]formamido}pentanamido]-4-methylpentyl]-1,3-thiazol-4-yl}formamido)-2,2-dimethylpentanoic Acid] | 0.81 | 0.29 | 4.3 | 9.7 | 0.07 | 2.4 | – | – | – | – | –
CCCCCCN(C(=O)[C@@H](NC(=O)[C@H]1CCCCN1C)[C@@H](C)CC)[C@H](C[C@@H](OCC)c1nc(C(=O)N[C@@H](Cc2ccc(NC(=O)CN)c(F)c2)CC(C)(C)C(=O)O)cs1)C(C)C [Compound P26, (4S)-5-[4-(2-aminoacetamido)-3-fluorophenyl]-4-({2-[(1R,3R)-1-ethoxy-3-[(2S,3S)—N-hexyl-3-methyl-2-{[(2R)-1-methylpiperidin-2-yl]formamido}pentanamido]-4-methylpentyl]-1,3-thiazol-4-yl}formamido)-2,2-dimethylpentanoic Acid] | 0.25 | 0.05 | 2.8 | 4.9 | 0.05 | 2.6 | – | – | – | – | –
CCCCCCN(C(=O)[C@@H](NC(=O)[C@H]1CCCCN1C)[C@@H](C)CC)[C@H](C[C@@H](OC(C)=O)c1nc(C(=O)N[C@@H](Cc2ccc(NC(=O)CN)c(F)c2)CC(C)(C)C(=O)O)cs1)C(C)C [Compound P25, (4S)-4-({2-[(1R,3R)-1-(acetyloxy)-3-[(2S,3S)—N-hexyl-3-methyl-2-{[(2R)-1-methylpiperidin-2-yl]formamido}pentanamido]-4-methylpentyl]-1,3-thiazol-4-yl}formamido)-5-[4-(2-aminoacetamido)-3-fluorophenyl]-2,2-dimethylpentanoic Acid] | 0.08 | 0.04 | 4.0 | 4.0 | 0.03 | 1.9 | – | – | – | – | –
CC[C@H](C)[C@@H]([C@@H](CC(=O)N1CCC[C@H]1[C@H](OC)[C@@H](C)C(=O)N[C@H](C)[C@@H](O)c1ccccc1)OC)N(C)C(=O)[C@@H](NC(=O)[C@@H](NC)C(C)C)C(C)C [MMAE, Monomethyl auristatin E] (H-[NMeV]V[Dil][Dolaproine]-X1) | – | – | – | – | – | – | 0.283 | 93.7 | 0.22 | 99 | 23.7
CCCCCCN(C(=O)[C@@H](NC(=O)[C@H]1CCCCN1)[C@@H](C)CC)[C@H](C[C@@H](OC(C)=O)c1nc(C(=O)N[C@@H](Cc2ccc(NC(=O)CN)c(F)c2)CC(C)(C)C(=O)O)cs1)C(C)C [Compound P27, (4S)-4-({2-[(1R,3R)-1-(acetyloxy)-3-[(2S,3S)—N-hexyl-3-methyl-2-[(2R)-piperidin-2-ylformamido]pentanamido]-4-methylpentyl]-1,3-thiazol-4-yl}formamido)-5-[4-(2-aminoacetamido)-3-fluorophenyl]-2,2-dimethylpentanoic Acid] | 1.48 | 0.09 | 3.8 | 6.4 | 0.11 | 3.9 | – | – | – | – | –
CCCCCCN(C(=O)[C@@H](NC(=O)[C@H]1CCCCN1C)[C@@H](C)CC)[C@H](C[C@@H](O)c1nc(C(=O)N[C@@H](Cc2ccc(NC(=O)CN)c(F)c2)CC(C)(C)C(=O)O)cs1)C(C)C [Compound P24, (4S)-5-[4-(2-aminoacetamido)-3-fluorophenyl]-4-({2-[(1R,3R)-3-[(2S,3S)—N-hexyl-3-methyl-2-{[(2R)-1-methylpiperidin-2-yl]formamido}pentanamido]-1-hydroxy-4-methylpentyl]-1,3-thiazol-4-yl}formamido)-2,2-dimethylpentanoic Acid] | 15.5 | 0.82 | 3.2 | 5.2 | 0.86 | 22 | – | – | – | – | –
